# Data published in the supplement of paper PMC10307832.
# Tests used:
# Test in all cases: relative viability (nuclei count vs DMSO), 5 days (fraction); higher = more cells survive
# Vandetanib + Luminespib = compound: COc1cc2/c(=N/c3ccc(Br)cc3F)nc[nH]c2cc1OCC1CCN(C)CC1 [Vandetanib] + CCNC(=O)c1noc(-c2cc(C(C)C)c(O)cc2O)c1-c1ccc(CN2CCOCC2)cc1 [Luminespib] (partner 0.01 µM)
# Method in brief: (§1)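 One day after seeding in 1536-well plates, lung cancer cell lines were dosed by pin tool. Dosing was either single-drug or a fixed anchor-drug dose plus five library-drug doses (not always all listed) in √10 steps. After 5 days, nuclei were stained in one fix-and-stain step and counted on 4× images, and relative viability is the nuclei count of treated wells over that of vehicle wells, given as the median of duplicate plates.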
# Vandetanib + Trametinib = compound: COc1cc2/c(=N/c3ccc(Br)cc3F)nc[nH]c2cc1OCC1CCN(C)CC1 [Vandetanib] + CC(=O)Nc1cccc(-n2c(=O)n(C3CC3)c(=O)c3c(Nc4ccc(I)cc4F)n(C)c(=O)c(C)c32)c1 [Trametinib] (partner 0.02 µM)
# Method in brief: as §1
# CUDC-101 + OSI-027 = compound: C#Cc1cccc(Nc2ncnc3cc(OC)c(OCCCCCCC(=O)NO)cc23)c1 [CUDC-101] + COc1cccc2cc(-c3nc([C@H]4CC[C@H](C(=O)O)CC4)n4ncnc(N)c34)[nH]c12 [OSI-027] (partner 0.5 µM)
# Method in brief: as §1
# NVP-TAE684 + Vorinostat = compound: COc1cc(N2CCC(N3CCN(C)CC3)CC2)ccc1Nc1ncc(Cl)c(Nc2ccccc2S(=O)(=O)C(C)C)n1 [NVP-TAE684] + O=C(CCCCCCC(=O)Nc1ccccc1)NO [Vorinostat] (partner 1 µM)
# Method in brief: as §1
Cell Line,relative viability (Vandetanib + Luminespib; first compound 0.02 µM),relative viability (Vandetanib + Luminespib; first compound 0.06325 µM),relative viability (Vandetanib + Luminespib; first compound 0.2 µM),relative viability (Vandetanib + Luminespib; first compound 0.6325 µM),relative viability (Vandetanib + Luminespib; first compound 2 µM),relative viability (Vandetanib + Trametinib; first compound 0.02 µM),relative viability (Vandetanib + Trametinib; first compound 0.06325 µM),relative viability (Vandetanib + Trametinib; first compound 0.2 µM),relative viability (Vandetanib + Trametinib; first compound 0.6325 µM),relative viability (Vandetanib + Trametinib; first compound 2 µM),relative viability (CUDC-101 + OSI-027; first compound 0.01 µM),relative viability (CUDC-101 + OSI-027; first compound 0.03162 µM),relative viability (CUDC-101 + OSI-027; first compound 0.1 µM),relative viability (CUDC-101 + OSI-027; first compound 0.3162 µM),relative viability (CUDC-101 + OSI-027; first compound 1 µM),relative viability (NVP-TAE684 + Vorinostat; first compound 0.2 µM),relative viability (NVP-TAE684 + Vorinostat; first compound 0.6325 µM),relative viability (NVP-TAE684 + Vorinostat; first compound 2 µM)
HARA,0.814,0.561,0.074,0.9,0.512,0.515,0.522,0.574,0.857,0.523,0.509,0.442,0.322,0.348,0.171,0.525,0.464,0.23
NCI-H1651,1.09,1.01,0.171,0.901,0.641,0.822,0.818,0.83,0.876,0.727,0.707,0.67,0.746,0.912,0.679,0.635,0.537,0.508
NCI-H2405,0.736,0.539,0.776,0.642,0.55,0.63,0.458,0.714,0.653,0.616,0.643,0.613,0.721,0.734,0.541,1.09,0.896,0.518
NCI-H596,0.915,0.89,0.81,1.02,0.771,0.773,0.763,0.756,0.758,0.634,0.655,0.715,0.783,0.805,0.751,0.565,0.578,0.647
NCI-H2009,1.04,0.998,0.17,1.07,1.03,0.263,0.252,0.286,0.282,0.275,0.672,0.737,0.739,0.8,0.494,0.733,0.554,0.495
NCI-H2170,0.715,0.606,0.689,0.616,0.823,0.905,0.875,0.931,0.896,0.858,0.697,0.765,0.605,0.686,0.619,0.771,0.763,0.824
LU99A,0.231,0.233,0.273,0.255,0.256,0.486,0.518,0.396,0.512,0.539,0.297,0.305,0.302,0.289,0.239,0.51,0.465,0.357
PC-3 [JPC-3],0.724,0.661,0.639,0.745,0.524,0.682,0.577,0.584,0.513,0.435,0.758,0.786,0.514,0.547,0.407,0.908,0.72,0.578
HCC-44,1.01,0.988,1.13,1.2,1.01,1.1,1.04,1.06,1.15,1.06,0.527,0.685,0.587,0.586,0.295,1.18,1.14,0.928
H3255,0.982,0.795,0.829,0.728,0.501,0.614,0.577,0.604,0.463,0.245,0.571,0.556,,0.395,0.204,0.855,0.757,0.667
LXF-289,0.626,0.627,0.744,0.718,0.624,0.681,0.663,0.606,0.69,0.677,0.751,0.885,0.766,0.918,0.57,0.671,0.676,0.723
PC-14,0.234,0.152,0.184,0.13,0.131,0.725,0.51,0.071,0.109,0.0866,1.02,0.813,0.378,0.571,0.0565,0.44,0.69,0.144
NCI-H661,0.912,0.914,0.869,0.934,0.978,0.55,0.543,0.63,0.601,0.532,0.709,0.808,0.735,0.711,0.346,0.817,0.741,0.445
EKVX,0.878,0.86,0.956,0.827,0.65,0.37,0.289,0.281,0.294,0.212,0.649,0.696,0.694,0.798,0.579,0.677,0.699,0.373
